These results are taken from patent US4613666A, “Neplanocin A derivatives” (Toyo Jozo Kabushiki Kaisha, priority 1980, dated 1986).

In one assay the test system is L 5178 Y cells. Put plainly: growth-inhibitory activity on mouse lymphoma L 5178 Y cells (MIC). Type of assay: cell-based. The following applies: 5×10^4 /ml, Fischer's medium with 10% bovine serum, 37° C., 22 hours, phenol red color change, read-out: MIC (minimum inhibitory concentration on cell growth). How it is done:
The growth-inhibitory activities of compound [I] of the present invention on L 5178 Y cells are shown below. (1) Test method:
A test sample (0.3 ml) dissolved in a medium [bovine serum (10%) in Fischer's medium] is added to a mouse lymphoma L 5178 Y cells suspension (2.7 ml, 5×10^4 /ml cells), and the mixture is incubated at 37° C. for 22 hours. Cell-growth is observed by checking the color change of phenol red in the medium. The minimum inhibitory concentration (MIC) of the substance on cell growth is defined by observing apparent growth inhibition as compared with that of control.

The test system of a further assay is plant pathogenic fungi. Particulars: earlier applications cited; cited from earlier work.
The conditions of assay [1]: earlier applications cited; cited from earlier work.

≈ marks a conversion by molar mass, not a printed value.

`O=C(Nc1ncnc2c1ncn2[C@@H]1C=C(COC(=O)c2ccccc2)[C@@H](O)[C@H]1O)c1ccccc1` [N^6,5'-Odibenzoyl neplanocin A, N^6,5'-O-dibenzoyl neplanocin A]: in the assay on L 5178 Y cells, the MIC worked out at 0.16 mg/L (≈ 0.339 µM).

Turning to `Nc1ncnc2c1ncn2[C@@H]1C=C(CO)[C@@H](O)[C@@H]1Cl` [R1=H, R4=Cl, R5=H, R6=H, 2'-(R)-chloro-2'-deoxy neplanocin A], in the assay on L 5178 Y cells, the MIC is 20 mg/L (≈ 71 µM).

For the compound `Nc1ncnc2c1ncn2[C@@H]1C=C(CO)[C@@H](O)[C@@H]1I` [R1=H, R4=I, R5=H, R6=H, 2'-(R)-iodo-2'-deoxy neplanocin A], in the assay on L 5178 Y cells, the MIC is 4 mg/L (≈ 10.7 µM).

Regarding `Nc1ncnc2c1ncn2[C@@H]1C=C(CO)[C@@H](O)[C@@H]1N` [R1=H, R4=NH2, R5=H, R6=H, 2'-(R)-amino-2'-deoxy neplanocin A acetate], the MIC in the assay with L 5178 Y cells is 4 mg/L.

As to `CC(=O)OCC1=C[C@@H](n2cnc3c(N)ncnc32)[C@@H](Cl)[C@@H]1OC(C)=O` [R1=H, R4=Cl, R5=Ac, R6=Ac, 2'-(R)-chloro-2'-deoxy-3 '-O,5'-O-diacetyl neplanocin A], in the assay on L 5178 Y cells, the MIC came out at 100 mg/L (≈ 273 µM).

Turning to `O=C(OCC1=C[C@@H](n2cnc3c(N(C(=O)c4ccccc4)C(=O)c4ccccc4)ncnc32)[C@H](O)[C@@H]1O)c1ccccc1` [N^6,N^6,5'-Otribenzoyl neplanocin A, N^6,N^6 5'-O-tribenzoyl neplanocin A], the MIC in the assay on L 5178 Y cells is 0.16 mg/L (≈ 0.278 µM).

As to `Nc1ncnc2c1ncn2[C@@H]1C=C(CO)[C@@H](O)[C@H]1O` [Neplanocin A], in the assay with plant pathogenic fungi, the “inhibitory action for plant pathogenic fungi” value is “inhibitory action for plant pathogenic fungi”. Besides, in assay [1], the antitumor activity entry is recorded as “antitumor activity”.

Turning to `O=C(Nc1ncnc2c1ncn2[C@@H]1C=C(CO)[C@@H](O)[C@@H]1I)c1ccccc1` [R1=COPh, R4=I, R5=H, R6=H, N^6-benzoyl-2'-(R)-iodo-2'-deoxy neplanocin A], the MIC with L 5178 Y cells was 100 mg/L (≈ 210 µM).

As for `Nc1ncnc2c1ncn2[C@@H]1C=C(CO)[C@@H](O)[C@@H]1Br` [R1=H, R4=Br, R5=H, R6=H, 2'-(R)-bromo-2'-deoxy neplanocin A], in the assay with L 5178 Y cells, the MIC was 4 mg/L (≈ 12.3 µM).

With `[N-]=[N+]=N[C@H]1[C@H](O)C(CO)=C[C@H]1n1cnc2c(N)ncnc21` [R1=H, R4=N3, R5=H, R6=H, 2'-(R)-azide-2'-deoxyneplanocin A], the MIC in the assay with L 5178 Y cells stood at 100 mg/L (≈ 347 µM).

With `CC(=O)OCC1=C[C@@H](n2cnc3c(N)ncnc32)[C@H](OC(C)=O)[C@@H]1OC(C)=O` [2',3',5'-Otriacetyl nephlanocin A, 2',3',5'-O-triacetyl neplanocin A], in the assay on L 5178 Y cells, the MIC was 0.8 mg/L (≈ 2.05 µM).

Take `Nc1ncnc2c1ncn2[C@@H]1C=C(CO)[C@@H](O)C1` [R1=H, R4=H, R5=H, R6=H, 2'-deoxy neplanocin A]: the MIC in the assay on L 5178 Y cells came out at 4 mg/L (≈ 16.2 µM).

In the case of `Nc1ncnc2c1ncn2[C@@H]1C=C(CO)[C@H]2OC(c3ccccc3)O[C@H]21` (some centres unmarked) [2',3'-Obenzylidene neplanocin A, 2',3'-O-benzylidene neplanocin A], in the assay with L 5178 Y cells, the MIC came out at 4 mg/L (≈ 11.4 µM).
